Experimental data as given in ChEMBL document CHEMBL2380251, “Antiproliferative activity of 2,3-disubstituted indoles toward apoptosis-resistant cancers cells” (2013).
One block for each compound: values may come before it. Activity calls are given as the source filed them. The rule behind the calls is not given here.

Columns and labels:
B16-F10 = test: Growth inhibition of apoptosis-resistance mouse B16F10 cells after 72 hrs by MTT assay; format: functional; details: B16-F10, 72 h
A549 [1] = test: Growth inhibition of apoptosis-resistance human A549 cells after 72 hrs by MTT assay; format: functional; details: A549, 72 h
SK-MEL-28 [2] = test: Growth inhibition of apoptosis-resistance human SK-MEL-28 cells after 72 hrs by MTT assay; format: functional; details: SK-MEL-28, 72 h
Hs 683 = test: Growth inhibition of apoptosis-sensitive human Hs 683 cells after 72 hrs by MTT assay; format: functional; details: Hs 683, 72 h
[3] = Growth inhibition of apoptosis-resistance human U373 cells after 72 hrs by MTT assay; format: functional, U-373MG ATCC; details: U373 MG
A549 [4] = test: Induction of membrane permeabilization in apoptosis-resistance human A549 cells at GI50 after 72 hrs by propidium iodide staining-based flow cytometric analysis; format: functional, cell-based
SK-MEL-28 [5] = test: Induction of membrane permeabilization in apoptosis-resistance human SK-MEL-28 cells at GI50 after 72 hrs by propidium iodide staining-based flow cytometric analysis; format: functional, cell-based
A549 [6] = test: Cytostatic activity against apoptosis-resistance human A549 cells assessed as cell growth at GI50 after 72 hrs by phase contrast microscopic analysis relative to control; format: functional
SK-MEL-28 [7] = test: Cytostatic activity against apoptosis-resistance human SK-MEL-28 cells assessed as cell growth at GI50 after 72 hrs by phase contrast microscopic analysis relative to control; format: functional
A549 [8] = test: Induction of apoptosis in apoptosis-resistance human A549 cells at GI50 after 72 hrs by phase contrast microscopic analysis; format: functional, cell-based
SK-MEL-28 [9] = test: Induction of apoptosis in apoptosis-resistance human SK-MEL-28 cells at GI50 after 72 hrs by phase contrast microscopic analysis; format: functional, cell-based

Structure (SMILES): Clc1ccc(Sc2c(-c3ccc(Cl)cc3)[nH]c3ccccc23)cc1
Activity (A549 [4]): inactive
Activity (SK-MEL-28 [5]): inactive
Activity (A549 [6]): 30%
Activity (SK-MEL-28 [7]): 10%
Activity (A549 [8]): inactive
Activity (SK-MEL-28 [9]): inactive
GI50 (B16-F10): 28 µM
GI50 (A549 [1]): 27 µM
GI50 (SK-MEL-28 [2]): 34 µM
GI50 (Hs 683): 31 µM
GI50 [3]: 28 µM

Structure (SMILES): Clc1ccc(Oc2c(-c3ccc(Cl)cc3)[nH]c3ccc(Cl)cc23)cc1
GI50 (B16-F10): 10 µM
GI50 (A549 [1]): 10 µM
GI50 (SK-MEL-28 [2]): 19 µM
GI50 (Hs 683): 13 µM
GI50 [3]: 13 µM

Structure (SMILES): O=C(Nc1c(-c2ccccc2)[nH]c2ccc(Cl)cc12)c1cc2ccccc2oc1=O
GI50 (B16-F10): 27 µM
GI50 (A549 [1]): 37 µM
GI50 (SK-MEL-28 [2]): 55 µM
GI50 (Hs 683): 45 µM
GI50 [3]: 66 µM

Structure (SMILES): Clc1ccc(Oc2c(-c3ccc(Cl)cc3)[nH]c3ccc(Br)cc23)cc1
GI50 (B16-F10): 29 µM
GI50 (A549 [1]): 30 µM
GI50 (SK-MEL-28 [2]): 28 µM
GI50 (Hs 683): 26 µM
GI50 [3]: 35 µM

Structure (SMILES): Clc1ccc(Sc2c(-c3ccc(Cl)cc3)[nH]c3ccc(Cl)cc23)cc1
GI50 (B16-F10): 28 µM
GI50 (A549 [1]): 27 µM
GI50 (SK-MEL-28 [2]): 34 µM
GI50 (Hs 683): 31 µM
GI50 [3]: 28 µM

Structure (SMILES): CCOC(=O)C1CCN(C(=S)Sc2c(-c3ccc(Br)cc3)[nH]c3ccc(Cl)cc23)CC1
GI50 (B16-F10): 21 µM
GI50 (A549 [1]): 34 µM
GI50 (SK-MEL-28 [2]): 39 µM
GI50 (Hs 683): 36 µM
GI50 [3]: 33 µM

Structure (SMILES): Clc1ccc(/N=N/c2c(-c3ccc(Br)cc3)[nH]c3ccccc23)cc1
GI50 (B16-F10): 33 µM
GI50 (A549 [1]): 26 µM
GI50 (SK-MEL-28 [2]): 33 µM
GI50 (Hs 683): 31 µM
GI50 [3]: 33 µM

Structure (SMILES): Cc1ccc2[nH]c(-c3ccc(Cl)cc3)c(-n3nc(C)cc3C)c2c1
GI50 (B16-F10): 65 µM
GI50 (A549 [1]): 42 µM
GI50 (SK-MEL-28 [2]): 46 µM
GI50 (Hs 683): 50 µM
GI50 [3]: 43 µM

Structure (SMILES): O=C(Nc1c(-c2ccccc2)[nH]c2ccccc12)C12CC3CC(CC(C3)C1)C2
GI50 (B16-F10): 44 µM
GI50 (A549 [1]): 38 µM
GI50 (SK-MEL-28 [2]): 67 µM
GI50 (Hs 683): 69 µM
GI50 [3]: 38 µM

Structure (SMILES): Cc1cc(C)n(-c2c(-c3ccccc3)[nH]c3ccc(F)cc23)n1
GI50 (B16-F10): 39 µM
GI50 (A549 [1]): 29 µM
GI50 (SK-MEL-28 [2]): 31 µM
GI50 (Hs 683): 32 µM
GI50 [3]: 47 µM

Structure (SMILES): Cc1ccc2[nH]c(-c3ccccc3)c(-n3nc(C)cc3C)c2c1
GI50 (B16-F10): 40 µM
GI50 (A549 [1]): 26 µM
GI50 (SK-MEL-28 [2]): 33 µM
GI50 (Hs 683): 29 µM
GI50 [3]: 10 µM

Structure (SMILES): Fc1ccc2[nH]c(-c3ccc(Cl)cc3)c(Oc3ccc(Cl)cc3)c2c1
GI50 (B16-F10): 14 µM
GI50 (A549 [1]): 22 µM
GI50 (SK-MEL-28 [2]): 24 µM
GI50 (Hs 683): 22 µM
GI50 [3]: 20 µM

Structure (SMILES): O=C(COc1ccc(Cl)cc1)Nc1c(-c2ccccc2)[nH]c2ccccc12
GI50 (B16-F10): 32 µM
GI50 (A549 [1]): 37 µM
GI50 (SK-MEL-28 [2]): 48 µM
GI50 (Hs 683): 38 µM
GI50 [3]: 66 µM

Structure (SMILES): CCOC(=O)C1CCN(C(=S)Sc2c(-c3ccc(Br)cc3)n(C)c3ccccc23)CC1
GI50 (B16-F10): 50 µM
GI50 (A549 [1]): 72 µM
GI50 (SK-MEL-28 [2]): 78 µM
GI50 (Hs 683): 85 µM
GI50 [3]: > 100 µM

Second part, led by results:

GI50 (B16-F10): 27 µM
GI50 (A549 [1]): 34 µM
GI50 (SK-MEL-28 [2]): 36 µM
Structure (SMILES): CCOC(=O)C1CCN(C(=S)Sc2c(-c3ccc(Br)cc3)[nH]c3ccccc23)CC1
GI50 (Hs 683): 36 µM
GI50 [3]: 35 µM

GI50 (B16-F10): 35 µM
GI50 (A549 [1]): 30 µM
GI50 (SK-MEL-28 [2]): 30 µM
Structure (SMILES): O=C(CSCc1ccccc1)Nc1c(-c2ccccc2)[nH]c2ccccc12
GI50 (Hs 683): 33 µM
GI50 [3]: 47 µM

GI50 (B16-F10): 26 µM
GI50 (A549 [1]): 23 µM
GI50 (SK-MEL-28 [2]): 31 µM
Structure (SMILES): Brc1ccc(/N=N/c2c(-c3ccc(Br)cc3)[nH]c3ccccc23)cc1
GI50 (Hs 683): 24 µM
GI50 [3]: 30 µM

GI50 (B16-F10): 33 µM
GI50 (A549 [1]): 22 µM
GI50 (SK-MEL-28 [2]): 29 µM
Structure (SMILES): CCN(CC)C(=S)Sc1c(-c2ccc(Br)cc2)[nH]c2ccc(Br)cc12
GI50 (Hs 683): 22 µM
GI50 [3]: 9 µM

GI50 (B16-F10): 22 µM
GI50 (A549 [1]): 9 µM
GI50 (SK-MEL-28 [2]): 13 µM
Structure (SMILES): Cc1onc(-c2c(F)cccc2Cl)c1C(=O)Nc1c(-c2ccccc2)[nH]c2ccccc12
GI50 (Hs 683): 15 µM
GI50 [3]: 24 µM

GI50 (B16-F10): 40 µM
GI50 (A549 [1]): 31 µM
GI50 (SK-MEL-28 [2]): 28 µM
Structure (SMILES): CCN(CC)C(=S)Sc1c(-c2ccccc2)[nH]c2ccc(Br)cc12
GI50 (Hs 683): 26 µM
GI50 [3]: 36 µM

GI50 (B16-F10): 8 µM
GI50 (A549 [1]): 7 µM
GI50 (SK-MEL-28 [2]): 8 µM
Structure (SMILES): Fc1cccc2c(Oc3ccc(Cl)cc3)c(-c3ccc(Cl)cc3)[nH]c12
GI50 (Hs 683): 7 µM
GI50 [3]: 8 µM

GI50 (B16-F10): 20 µM
GI50 (A549 [1]): 28 µM
GI50 (SK-MEL-28 [2]): 28 µM
Structure (SMILES): CCOC(=O)c1ccc2[nH]c(-c3ccc(Cl)cc3)c(Oc3ccc(Cl)cc3)c2c1
GI50 (Hs 683): 24 µM
GI50 [3]: 35 µM

GI50 (B16-F10): 29 µM
GI50 (A549 [1]): 24 µM
GI50 (SK-MEL-28 [2]): 28 µM
Structure (SMILES): OC1CCCN(C(=S)Sc2c(-c3ccc(Br)cc3)[nH]c3ccccc23)C1 (stereo unspecified)
GI50 (Hs 683): 24 µM
GI50 [3]: 32 µM

GI50 (B16-F10): 36 µM
GI50 (A549 [1]): 40 µM
GI50 (SK-MEL-28 [2]): 35 µM
Structure (SMILES): Cc1cc(C)n(-c2c(-c3cccs3)[nH]c3ccc(Cl)cc23)n1
GI50 (Hs 683): 32 µM
GI50 [3]: 32 µM

GI50 (B16-F10): 29 µM
GI50 (A549 [1]): 25 µM
GI50 (SK-MEL-28 [2]): 28 µM
Structure (SMILES): Clc1ccc(Oc2c(-c3ccc(Cl)cc3)[nH]c3ccccc23)cc1
GI50 (Hs 683): 28 µM
GI50 [3]: 25 µM

GI50 (B16-F10): > 100 µM
GI50 (A549 [1]): 61 µM
GI50 (SK-MEL-28 [2]): 84 µM
Structure (SMILES): Cc1cc(C)n(-c2c(-c3ccccc3)[nH]c3ccccc23)n1
GI50 (Hs 683): 67 µM
GI50 [3]: 84 µM

GI50 (B16-F10): 31 µM
GI50 (A549 [1]): 59 µM
GI50 (SK-MEL-28 [2]): 57 µM
Structure (SMILES): COc1ccc2[nH]c(-c3ccc(Cl)cc3)c(Oc3ccc(Cl)cc3)c2c1
GI50 (Hs 683): 54 µM
GI50 [3]: 50 µM

GI50 (B16-F10): 37 µM
GI50 (A549 [1]): 37 µM
GI50 (SK-MEL-28 [2]): 52 µM
Structure (SMILES): CCOC(=O)C1CCN(C(=S)Sc2c(-c3ccc(Br)cc3)[nH]c3ccc(C)cc23)CC1
GI50 (Hs 683): 34 µM
GI50 [3]: 68 µM

GI50 (B16-F10): 73 µM
GI50 (A549 [1]): 38 µM
GI50 (SK-MEL-28 [2]): 80 µM
Structure (SMILES): Cc1cc(C)n(-c2c(-c3cccs3)[nH]c3ccccc23)n1
GI50 (Hs 683): 58 µM
GI50 [3]: 90 µM

GI50 (B16-F10): 20 µM
GI50 (A549 [1]): 31 µM
GI50 (SK-MEL-28 [2]): 35 µM
Structure (SMILES): S=C(Sc1c(-c2ccc(Br)cc2)[nH]c2ccccc12)N1CCOCC1
GI50 (Hs 683): 32 µM
GI50 [3]: 43 µM

GI50 (B16-F10): 37 µM
GI50 (A549 [1]): 29 µM
GI50 (SK-MEL-28 [2]): 34 µM
Structure (SMILES): OC1CCCN(C(=S)Sc2c(-c3ccc(Br)cc3)[nH]c3ccc(Cl)cc23)C1 (stereo unspecified)
GI50 (Hs 683): 31 µM
GI50 [3]: 39 µM

GI50 (B16-F10): 35 µM
GI50 (A549 [1]): 26 µM
GI50 (SK-MEL-28 [2]): 26 µM
Structure (SMILES): Clc1ccc(Sc2c(-c3ccc(Br)cc3)[nH]c3ccccc23)cc1
GI50 (Hs 683): 25 µM
GI50 [3]: 24 µM
